Measured values published in patent publication US20250230165A1, “HETEROCYCLIC COMPOUNDS FOR USE IN THE TREATMENT OF CANCER” (ARTIOS PHARMA LIMITED, priority 2021, published 2025).

target: T1, Human Polθ polymerase domain (aa1820-2590) (Homo sapiens, UniProt O75417); experiment: Polθ Polymerase Domain Kinact/KI Assay (PicoGreen); assay type: biochemical; settings: 0.8 nM Polθ, 100 nM DNA substrate, kobs vs [I] fit for 2-step covalent inhibitor
T1 construct: Human Polθ polymerase domain (aa1820-2590) was expressed in E. coli; made in house; host or cells: E. coli
T1 sequence (O75417 1820-2590): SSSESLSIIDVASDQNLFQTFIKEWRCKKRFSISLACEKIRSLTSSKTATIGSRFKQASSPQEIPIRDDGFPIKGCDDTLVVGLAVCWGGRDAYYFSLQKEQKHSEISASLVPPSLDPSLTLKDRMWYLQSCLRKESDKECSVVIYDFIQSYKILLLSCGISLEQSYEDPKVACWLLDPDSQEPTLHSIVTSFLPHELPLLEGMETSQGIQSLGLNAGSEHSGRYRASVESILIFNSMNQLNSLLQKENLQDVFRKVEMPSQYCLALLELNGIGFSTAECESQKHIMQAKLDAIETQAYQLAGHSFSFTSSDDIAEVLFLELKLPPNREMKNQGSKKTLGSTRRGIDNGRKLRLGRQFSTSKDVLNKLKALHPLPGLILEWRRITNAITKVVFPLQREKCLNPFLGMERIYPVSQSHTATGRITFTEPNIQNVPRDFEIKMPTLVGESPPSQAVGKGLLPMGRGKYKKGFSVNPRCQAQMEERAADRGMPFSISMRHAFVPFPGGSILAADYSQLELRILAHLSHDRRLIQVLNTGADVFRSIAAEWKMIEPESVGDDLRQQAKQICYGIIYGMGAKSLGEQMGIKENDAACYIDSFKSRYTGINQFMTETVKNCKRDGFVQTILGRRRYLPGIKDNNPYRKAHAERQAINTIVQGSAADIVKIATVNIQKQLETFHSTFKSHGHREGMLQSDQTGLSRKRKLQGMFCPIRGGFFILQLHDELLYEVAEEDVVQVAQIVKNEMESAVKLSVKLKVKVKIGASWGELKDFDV
Procedure, shortened: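 Time-dependent inhibition was followed with 0.8 nM polymerase domain, 100 nM DNA substrate and […], reactions quenched over 60 min and quantified by PicoGreen. Kinact and KI came from a secondary plot of kobs against inhibitor concentration.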

Going from `C=CC(=O)N1C[C@@H](F)[C@@H](n2cnc(CN3C[C@H]4CC(=O)N(c5cc(C(F)(F)F)cc(C)n5)[C@@H]4C(=O)N(C)c4cccc(C)c43)c2)C1` (single isomer, unassigned) [Example 326a] to `C=CC(=O)N1C[C@@H](n2cnc(CN3C[C@H]4CC(=O)N(c5cc(C(F)(F)F)cc(C)n5)[C@@H]4C(=O)N(C)c4cccc(C)c43)c2)[C@@H](F)C1` (single isomer, unassigned) [Example 326b], the Kinact/Kl rises from 450000 M⁻¹ s⁻¹ to 1.52e+06 M⁻¹ s⁻¹ (3.4-fold).

`C=CC(=O)N1CC(N2CCN(CCN3C[C@H]4CC(=O)N(c5cc(C(F)(F)F)cc(C)n5)[C@@H]4C(=O)N(C)c4cccc(F)c43)CC2)C1` [Example 1, (3aR,11aS)-5-(2-(4-(1-Acryloylazetidin-3-yl)piperazin-1-yl)ethyl)-6-fluoro-10-methyl-1-(6-methyl-4-(trifluoromethyl)pyridin-2-yl)-1,3a,4,5,10,11a-hexahydro-2H-benzo[b]pyrrolo[2,3-f][1,4]diazocine-2,11(3H)-dione] and `C=CC(=O)N1CC(N2CCCN(CCN3C[C@H]4CC(=O)N(c5cc(C(F)(F)F)cc(C)n5)[C@@H]4C(=O)N(C)c4cccc(F)c43)CC2)C1` [Example 3, (3aR,11aS)-5-(2-(4-(1-Acryloylazetidin-3-yl)-1,4-diazepan-1-yl)ethyl)-6-fluoro-10-methyl-1-(6-methyl-4-(trifluoromethyl)pyridin-2-yl)-1,3a,4,5,10,11a-hexahydro-2H-benzo[b]pyrrolo[2,3-f][1,4]diazocine-2,11(3H)-dione] are within 1.5-fold of each other in Kinact/Kl: 410000 M⁻¹ s⁻¹ for the first, 540000 M⁻¹ s⁻¹ for the second.

`C=CC(=O)N1CC2(CN(CCN3C[C@H]4CC(=O)N(c5cc(C(F)(F)F)cc(C)n5)[C@@H]4C(=O)N(C)c4cccc(F)c43)C[C@H]3CCCN32)C1` [Example 2, (3aR,11aS)-5-(2-((R)-1-Acryloyltetrahydro-1′H-spiro[azetidine-3,4′-pyrrolo[1,2-a]pyrazin]-2′(3′H)-yl)ethyl)-6-fluoro-10-methyl-1-(6-methyl-4-(trifluoromethyl)pyridin-2-yl)-1,3a,4,5,10,11a-hexahydro-2H-benzo[b]pyrrolo[2,3-f][1,4]diazocine-2,11(3H)-dione] and `C=CC(=O)N1CC2(CN(CCN3C[C@H]4CC(=O)N(c5cc(C(F)(F)F)cc(C)n5)[C@@H]4C(=O)N(C)c4cccc(F)c43)CCO2)C1` [Example 4, (3aR,11aS)-5-(2-(2-acryloyl-5-oxa-2,8-diazaspiro[3.5]nonan-8-yl)ethyl)-6-fluoro-10-methyl-1-(6-methyl-4-(trifluoromethyl)pyridin-2-yl)-1,3a,4,5,10,11a-hexahydro-2H-benzo[b]pyrrolo[2,3-f][1,4]diazocine-2,11(3H)-dione] are within 1.5-fold of each other in Kinact/Kl: 670000 M⁻¹ s⁻¹ for the first, 750000 M⁻¹ s⁻¹ for the second.

Compared with `C=CC(=O)N1CC2CN(CCN3C[C@H]4CC(=O)N(c5cc(C(F)(F)F)cc(C)n5)[C@@H]4C(=O)N(C)c4cccc(F)c43)CC(C1)O2` [Example 5, (3aR,11aS)-5-(2-(7-acryloyl-9-oxa-3,7-diazabicyclo[3.3.1]nonan-3-yl)ethyl)-6-fluoro-10-methyl-1-(6-methyl-4-(trifluoromethyl)pyridin-2-yl)-1,3a,4,5,10,11a-hexahydro-2H-benzo[b]pyrrolo[2,3-f][1,4]diazocine-2,11(3H)-dione], `C=CC(=O)N1CC2(CN(CCN3C[C@H]4CC(=O)N(c5cc(C(F)(F)F)cc(C)n5)[C@@H]4C(=O)N(C)c4cccc(F)c43)C[C@@H](COC)N2)C1` [Example 6, (3aR,11aS)-5-(2-((S)-2-acryloyl-6-(methoxymethyl)-2,5,8-triazaspiro[3.5]nonan-8-yl)ethyl)-6-fluoro-10-methyl-1-(6-methyl-4-(trifluoromethyl)pyridin-2-yl)-1,3a,4,5,10,11a-hexahydro-2H-benzo[b]pyrrolo[2,3-f][1,4]diazocine-2,11(3H)-dione] is 3.9-fold higher in Kinact/Kl: 140000 M⁻¹ s⁻¹ for the first, 540000 M⁻¹ s⁻¹ for the second.

`C=CC(=O)N1CC(N2CCN(CCN3C[C@H]4CC(=O)N(c5cc(C(F)(F)F)cc(C)n5)[C@@H]4C(=O)N(C)c4cccc(Cl)c43)CC2)C1` [Example 12, (3aR,11aS)-5-(2-(4-(1-acryloylazetidin-3-yl)piperazin-1-yl)ethyl)-6-chloro-10-methyl-1-(6-methyl-4-(trifluoromethyl)pyridin-2-yl)-1,3a,4,5,10,11a-hexahydro-2H-benzo[b]pyrrolo[2,3-f][1,4]diazocine-2,11(3H)-dione] and `C=CC(=O)N1CCN2CCN(CCN3C[C@H]4CC(=O)N(c5cc(C(F)(F)F)cc(C)n5)[C@@H]4C(=O)N(C)c4cccc(Cl)c43)CC2C1` (stereo partly drawn) [Example 14, (3aR,11aS)-5-(2-(8-acryloyloctahydro-2H-pyrazino[1,2-a]pyrazin-2-yl)ethyl)-6-chloro-10-methyl-1-(6-methyl-4-(trifluoromethyl)pyridin-2-yl)-1,3a,4,5,10,11a-hexahydro-2H-benzo[b]pyrrolo[2,3-f][1,4]diazocine-2,11(3H)-dione] are within 1.5-fold of each other in Kinact/Kl: 1.71e+06 M⁻¹ s⁻¹ for the first, 2.05e+06 M⁻¹ s⁻¹ for the second.

`C=CC(=O)N1CC2(CN(CCN3C[C@H]4CC(=O)N(c5cc(C(F)(F)F)cc(C)n5)[C@@H]4C(=O)N(C)c4cccc(Cl)c43)C[C@@H](C)N2)C1` [Example 13, (3aR,11aS)-5-(2-((R)-2-acryloyl-6-methyl-2,5,8-triazaspiro[3.5]nonan-8-yl)ethyl)-6-chloro-10-methyl-1-(6-methyl-4-(trifluoromethyl)pyridin-2-yl)-1,3a,4,5,10,11a-hexahydro-2H-benzo[b]pyrrolo[2,3-f][1,4]diazocine-2,11(3H)-dione] and `C=CC(=O)N1CC(N2CCN(CCN3C[C@H]4CC(=O)N(c5cc(C(F)(F)F)cc(C)n5)[C@@H]4C(=O)N(C)c4cc(F)cc(Cl)c43)CC2)C1` [Example 17, (3aR,11aS)-5-(2-(4-(1-acryloylazetidin-3-yl)piperazin-1-yl)ethyl)-6-chloro-8-fluoro-10-methyl-1-(6-methyl-4-(trifluoromethyl)pyridin-2-yl)-1,3a,4,5,10,11a-hexahydro-2H-benzo[b]pyrrolo[2,3-f][1,4]diazocine-2,11(3H)-dione] are within 1.5-fold of each other in Kinact/Kl: 1.26e+06 M⁻¹ s⁻¹ for the first, 1.19e+06 M⁻¹ s⁻¹ for the second.

First: C=CC(=O)N1CC(N2CCN(CCN3C[C@H]4CC(=O)N(c5cc(C(F)(F)F)cc(C)n5)[C@@H]4C(=O)N(C)c4cc(F)ccc43)CC2)C1 [Example 15, (3aR,11aS)-5-(2-(4-(1-acryloylazetidin-3-yl)piperazin-1-yl)ethyl)-8-fluoro-10-methyl-1-(6-methyl-4-(trifluoromethyl)pyridin-2-yl)-1,3a,4,5,10,11a-hexahydro-2H-benzo[b]pyrrolo[2,3-f][1,4]diazocine-2,11(3H)-dione]
Second: C=CC(=O)N1CC(N2CCN(CCN3C[C@H]4CC(=O)N(c5cc(C(F)(F)F)cc(C)n5)[C@@H]4C(=O)N(C)c4cc(F)cc(F)c43)CC2)C1 [Example 16, (3aR,11aS)-5-(2-(4-(1-acryloylazetidin-3-yl)piperazin-1-yl)ethyl)-6,8-difluoro-10-methyl-1-(6-methyl-4-(trifluoromethyl)pyridin-2-yl)-1,3a,4,5,10,11a-hexahydro-2H-benzo[b]pyrrolo[2,3-f][1,4]diazocine-2,11(3H)-dione]
The Kinact/Kl of the first is 1.8-fold lower: 73000 M⁻¹ s⁻¹ for the first, 130000 M⁻¹ s⁻¹ for the second.

First: C=CC(=O)N1CC(N2CCN(CCN3C[C@H]4CC(=O)N(c5cc(C(F)(F)F)cc(C)n5)[C@@H]4C(=O)N(C)c4cc(F)cc(C)c43)CC2)C1 [Example 18, (3aR,11aS)-5-(2-(4-(1-acryloylazetidin-3-yl)piperazin-1-yl)ethyl)-8-fluoro-6,10-dimethyl-1-(6-methyl-4-(trifluoromethyl)pyridin-2-yl)-1,3a,4,5,10,11a-hexahydro-2H-benzo[b]pyrrolo[2,3-f][1,4]diazocine-2,11(3H)-dione]
Second: C=CC(=O)N1CC(N2CCN(CCN3C[C@H]4CC(=O)N(c5cc(C(F)(F)F)cc(C)n5)[C@@H]4C(=O)N(C)c4cc(F)cc(C5CC5)c43)CC2)C1 [Example 19, (3aR,11aS)-5-(2-(4-(1-acryloylazetidin-3-yl)piperazin-1-yl)ethyl)-6-cyclopropyl-8-fluoro-10-methyl-1-(6-methyl-4-(trifluoromethyl)pyridin-2-yl)-1,3a,4,5,10,11a-hexahydro-2H-benzo[b]pyrrolo[2,3-f][1,4]diazocine-2,11(3H)-dione]
The Kinact/Kl of the first is 3.4-fold higher: 1.18e+06 M⁻¹ s⁻¹ for the first, 350000 M⁻¹ s⁻¹ for the second.

`C=CC(=O)N1CC(N2CCN(CCN3C[C@H]4CC(=O)N(c5cc(C(F)(F)F)cc(C)n5)[C@@H]4C(=O)N(C)c4c(F)c(F)cc(Cl)c43)CC2)C1` [Example 20, (3aR,11aS)-5-(2-(4-(1-acryloylazetidin-3-yl)piperazin-1-yl)ethyl)-6-chloro-8,9-difluoro-10-methyl-1-(6-methyl-4-(trifluoromethyl)pyridin-2-yl)-1,3a,4,5,10,11a-hexahydro-2H-benzo[b]pyrrolo[2,3-f][1,4]diazocine-2,11(3H)-dione] was tested, and the Kinact/Kl was 1.12e+06 M⁻¹ s⁻¹.
